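Values below derive from 48-hour exposures of cells grown in 96-well plates, with endpoints linearly interpolated between the two concentrations bracketing the appropriate inhibition level. Here, GI50 denotes the concentration required for 50% inhibition of growth.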 Activity calls are given as the source filed them. Rule as the data show it: active = GI50 up to about 1.1 µM and inactive = higher.
Tests used:
Test in all cases: DTP human tumour cell line panel, 48 h
786-0 = test system: 786-0
A498 = test system: A498
A549 = test system: A549
ACHN = test system: ACHN
BT-549 = test system: BT-549
CAKI-1 = test system: CAKI-1
CCRF-CEM = test system: CCRF-CEM
COLO 205 = test system: COLO 205
DU-145 = test system: DU-145
EKVX = test system: EKVX
HCC 2998 = test system: HCC 2998
HCT-116 = test system: HCT-116
HCT-15 = test system: HCT-15
HL-60 = test system: HL-60
HOP-62 = test system: HOP-62
HOP-92 = test system: HOP-92
HT-29 = test system: HT-29
Hs-578T = test system: Hs-578T
IGROV-1 = test system: IGROV-1
K562 = test system: K562
KM12 = test system: KM12
LOX IMVI = test system: LOX IMVI
M14 = test system: M14
MCF7 = test system: MCF7
MDA-MB-231 = test system: MDA-MB-231
MDA-MB-435 = test system: MDA-MB-435
MDA-N = test system: MDA-N
MOLT-4 = test system: MOLT-4
Malme-3M = test system: Malme-3M
NCI-H226 = test system: NCI-H226
NCI-H23 = test system: NCI-H23
NCI-H460 = test system: NCI-H460
NCI-H522 = test system: NCI-H522
NCI/ADR-RES = test system: NCI/ADR-RES
OVCAR-3 = test system: OVCAR-3
OVCAR-4 = test system: OVCAR-4
OVCAR-5 = test system: OVCAR-5
OVCAR-8 = test system: OVCAR-8
PC-3 = test system: PC-3
RPMI-8226 = test system: RPMI-8226
SF-295 = test system: SF-295
SF-539 = test system: SF-539
SK-MEL-28 = test system: SK-MEL-28
SK-MEL-2 = test system: SK-MEL-2
SK-MEL-5 = test system: SK-MEL-5
SK-OV-3 = test system: SK-OV-3
SN12C = test system: SN12C
SNB-19 = test system: SNB-19
SNB-75 = test system: SNB-75
SR = test system: SR
SW-620 = test system: SW-620
T47D = test system: T47D
TK-10 = test system: TK-10
U-251 = test system: U-251
UACC-257 = test system: UACC-257
UACC-62 = test system: UACC-62
UO-31 = test system: UO-31
RXF 393 = test system: RXF 393
SF-268 = test system: SF-268

COc1ccc(S(=O)(=O)N2C(=O)CCC2C(=O)NN)cc1 (stereo unspecified)
GI50 (786-0): > 100 µM (inactive)
GI50 (A498): > 100 µM (inactive)
GI50 (A549): > 100 µM (inactive)
GI50 (ACHN): > 100 µM (inactive)
GI50 (BT-549): > 100 µM (inactive)
GI50 (CAKI-1): > 100 µM (inactive)
GI50 (CCRF-CEM): > 100 µM (inactive)
GI50 (COLO 205): > 100 µM (inactive)
GI50 (DU-145): > 100 µM (inactive)
GI50 (EKVX): > 100 µM (inactive)
GI50 (HCC 2998): > 100 µM (inactive)
GI50 (HCT-116): > 100 µM (inactive)
GI50 (HCT-15): > 100 µM
GI50 (HL-60): > 100 µM (inactive)
GI50 (HOP-62): > 100 µM (inactive)
GI50 (HOP-92): > 100 µM (inactive)
GI50 (HT-29): > 100 µM (inactive)
GI50 (Hs-578T): 61.8 µM (inactive)
GI50 (IGROV-1): > 100 µM (inactive)
GI50 (K562): > 100 µM (inactive)
GI50 (KM12): > 100 µM (inactive)
GI50 (LOX IMVI): > 100 µM (inactive)
GI50 (M14): > 100 µM (inactive)
GI50 (MCF7): > 100 µM (inactive)
GI50 (MDA-MB-231): > 100 µM (inactive)
GI50 (MDA-MB-435): > 100 µM (inactive)
GI50 (MDA-N): > 100 µM (inactive)
GI50 (MOLT-4): > 100 µM (inactive)
GI50 (Malme-3M): > 100 µM (inactive)
GI50 (NCI-H226): > 100 µM (inactive)
GI50 (NCI-H23): > 100 µM (inactive)
GI50 (NCI-H460): > 100 µM (inactive)
GI50 (NCI-H522): 25.5 µM (inactive)
GI50 (NCI/ADR-RES): > 100 µM (inactive)
GI50 (OVCAR-3): > 100 µM (inactive)
GI50 (OVCAR-4): > 100 µM (inactive)
GI50 (OVCAR-5): > 100 µM (inactive)
GI50 (OVCAR-8): > 100 µM (inactive)
GI50 (PC-3): > 100 µM (inactive)
GI50 (RPMI-8226): > 100 µM (inactive)
GI50 (SF-295): > 100 µM (inactive)
GI50 (SF-539): > 100 µM (inactive)
GI50 (SK-MEL-28): > 100 µM (inactive)
GI50 (SK-MEL-2): > 100 µM (inactive)
GI50 (SK-MEL-5): > 100 µM (inactive)
GI50 (SK-OV-3): > 100 µM (inactive)
GI50 (SN12C): > 100 µM (inactive)
GI50 (SNB-19): > 100 µM (inactive)
GI50 (SNB-75): > 100 µM (inactive)
GI50 (SR): > 100 µM (inactive)
GI50 (SW-620): > 100 µM (inactive)
GI50 (T47D): > 100 µM (inactive)
GI50 (TK-10): > 100 µM (inactive)
GI50 (U-251): > 100 µM (inactive)
GI50 (UACC-257): > 100 µM (inactive)
GI50 (UACC-62): > 100 µM (inactive)
GI50 (UO-31): > 100 µM (inactive)

CO/N=C1/c2sccc2[C@H](NC(=O)C(Cc2ccccc2)NC(=O)OC(C)(C)C)[C@@H]1O (stereo partly specified)
GI50 (A498): > 100 µM (inactive)
GI50 (A549): > 100 µM (inactive)
GI50 (BT-549): > 100 µM (inactive)
GI50 (CAKI-1): > 100 µM (inactive)
GI50 (CCRF-CEM): > 100 µM (inactive)
GI50 (COLO 205): > 100 µM (inactive)
GI50 (DU-145): > 100 µM (inactive)
GI50 (EKVX): > 100 µM (inactive)
GI50 (HCC 2998): > 100 µM (inactive)
GI50 (HCT-116): > 100 µM (inactive)
GI50 (HCT-15): > 100 µM
GI50 (HL-60): 85.1 µM (inactive)
GI50 (HOP-62): > 100 µM (inactive)
GI50 (HOP-92): > 100 µM (inactive)
GI50 (HT-29): > 100 µM (inactive)
GI50 (Hs-578T): > 100 µM (inactive)
GI50 (IGROV-1): > 100 µM (inactive)
GI50 (K562): > 100 µM (inactive)
GI50 (LOX IMVI): > 100 µM (inactive)
GI50 (M14): > 100 µM (inactive)
GI50 (MCF7): > 100 µM (inactive)
GI50 (MDA-MB-231): > 100 µM (inactive)
GI50 (MDA-MB-435): > 100 µM (inactive)
GI50 (MDA-N): > 100 µM (inactive)
GI50 (MOLT-4): 93.3 µM (inactive)
GI50 (Malme-3M): > 100 µM (inactive)
GI50 (NCI-H226): > 100 µM (inactive)
GI50 (NCI-H23): > 100 µM (inactive)
GI50 (NCI-H460): > 100 µM (inactive)
GI50 (NCI/ADR-RES): > 100 µM (inactive)
GI50 (OVCAR-3): > 100 µM (inactive)
GI50 (OVCAR-4): 45.6 µM (inactive)
GI50 (OVCAR-5): > 100 µM (inactive)
GI50 (OVCAR-8): > 100 µM (inactive)
GI50 (PC-3): > 100 µM (inactive)
GI50 (RXF 393): > 100 µM (inactive)
GI50 (SF-268): > 100 µM (inactive)
GI50 (SF-295): > 100 µM (inactive)
GI50 (SF-539): > 100 µM (inactive)
GI50 (SK-MEL-28): > 100 µM (inactive)
GI50 (SK-MEL-2): > 100 µM (inactive)
GI50 (SK-MEL-5): > 100 µM (inactive)
GI50 (SK-OV-3): > 100 µM (inactive)
GI50 (SN12C): > 100 µM (inactive)
GI50 (SNB-19): > 100 µM (inactive)
GI50 (SNB-75): > 100 µM (inactive)
GI50 (SR): 49.5 µM (inactive)
GI50 (SW-620): > 100 µM (inactive)
GI50 (T47D): 63.2 µM (inactive)
GI50 (TK-10): > 100 µM (inactive)
GI50 (U-251): > 100 µM (inactive)
GI50 (UACC-257): > 100 µM (inactive)
GI50 (UACC-62): > 100 µM (inactive)
GI50 (UO-31): 51.4 µM (inactive)
